Measurements published in patent US9580423B2, “Bicyclic heterocycles as FGFR4 inhibitors” (Incyte Corporation, priority 2015, dated 2017).
Read-outs that look alike come from different tables or passages of the source.

Columns and labels:
FGFR4 = FGFR4 (Homo sapiens (Human), UniProt P22455); test: FGFR Enzymatic Assay (FRET peptide phosphorylation), FGFR4; conditions: for FGFR1/FGFR4 IC50 ratio / FGFR2/FGFR4 IC50 ratio / FGFR3/FGFR4 IC50 ratio: IC50 ratio showing FGFR4 selectivity
Source text: (§1) The enzymes were purchased from Millipore or Invitrogen.
(§2) GraphPad prism3 was used to analyze the data. The IC50 values were derived by fitting the data to the equation for a sigmoidal dose-response with a variable slope. Y=Bottom+(Top-Bottom)/(1+10^((LogIC50−X)*HillSlope)) where X is the logarithm of concentration and Y is the response.

FGFR2 = FGFR2 (Homo sapiens (Human), UniProt P21802); test: FGFR Enzymatic Assay (FRET peptide phosphorylation), FGFR2
Source text: as §1, §2

FGFR1 = FGFR1 (Homo sapiens (Human), UniProt P11362); test: FGFR Enzymatic Assay (FRET peptide phosphorylation), FGFR1; conditions: read-out: FGFR1 IC50
Source text: as §1, §2

FGFR3 = FGFR3 (Homo sapiens (Human), UniProt P22607); test: FGFR Enzymatic Assay (FRET peptide phosphorylation), FGFR3
Source text: as §1, §2

[1] = read-out: FGFR4 IC50, pre-incubated for 4 hours
[2] = read-out: FGFR2 IC50, pre-incubated for 4 hours
[3] = read-out: FGFR3 IC50, pre-incubated for 4 hours
[4] = pre-incubated for 5 to 10 minutes
[5] = read-out: FGFR4 IC50, pre-incubated for 5 to 10 minutes
[6] = read-out: FGFR2 IC50, pre-incubated for 5 to 10 minutes
[7] = read-out: FGFR3 IC50, pre-incubated for 5 to 10 minutes
[8] = FGFR3 IC50 (nM), pre-incubated for 5 to 10 minutes
[9] = FGFR3 IC50 (nM), pre-incubated for 4 hours

Sequence of FGFR1 (P11362 22-822): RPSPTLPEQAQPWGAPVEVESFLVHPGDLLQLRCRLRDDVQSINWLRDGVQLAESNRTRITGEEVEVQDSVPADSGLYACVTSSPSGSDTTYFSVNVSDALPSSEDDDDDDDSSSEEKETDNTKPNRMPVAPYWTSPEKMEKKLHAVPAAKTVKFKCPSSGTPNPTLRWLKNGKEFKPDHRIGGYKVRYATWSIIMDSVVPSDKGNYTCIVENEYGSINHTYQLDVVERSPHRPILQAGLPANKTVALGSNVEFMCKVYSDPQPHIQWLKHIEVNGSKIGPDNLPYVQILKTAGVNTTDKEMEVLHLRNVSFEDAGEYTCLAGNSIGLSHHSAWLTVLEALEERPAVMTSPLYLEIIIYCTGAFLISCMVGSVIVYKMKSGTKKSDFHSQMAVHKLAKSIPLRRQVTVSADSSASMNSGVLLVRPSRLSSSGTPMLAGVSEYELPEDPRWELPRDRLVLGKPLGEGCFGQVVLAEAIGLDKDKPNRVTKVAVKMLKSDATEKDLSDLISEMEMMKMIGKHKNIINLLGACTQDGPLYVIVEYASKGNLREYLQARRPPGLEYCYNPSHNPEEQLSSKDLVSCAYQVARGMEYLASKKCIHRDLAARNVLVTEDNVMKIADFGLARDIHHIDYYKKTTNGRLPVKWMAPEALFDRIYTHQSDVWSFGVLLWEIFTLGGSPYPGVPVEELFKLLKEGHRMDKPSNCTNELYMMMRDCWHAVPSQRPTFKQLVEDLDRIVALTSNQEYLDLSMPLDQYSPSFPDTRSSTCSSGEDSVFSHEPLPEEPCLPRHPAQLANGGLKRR
Sequence of FGFR4 (P22455 22-802): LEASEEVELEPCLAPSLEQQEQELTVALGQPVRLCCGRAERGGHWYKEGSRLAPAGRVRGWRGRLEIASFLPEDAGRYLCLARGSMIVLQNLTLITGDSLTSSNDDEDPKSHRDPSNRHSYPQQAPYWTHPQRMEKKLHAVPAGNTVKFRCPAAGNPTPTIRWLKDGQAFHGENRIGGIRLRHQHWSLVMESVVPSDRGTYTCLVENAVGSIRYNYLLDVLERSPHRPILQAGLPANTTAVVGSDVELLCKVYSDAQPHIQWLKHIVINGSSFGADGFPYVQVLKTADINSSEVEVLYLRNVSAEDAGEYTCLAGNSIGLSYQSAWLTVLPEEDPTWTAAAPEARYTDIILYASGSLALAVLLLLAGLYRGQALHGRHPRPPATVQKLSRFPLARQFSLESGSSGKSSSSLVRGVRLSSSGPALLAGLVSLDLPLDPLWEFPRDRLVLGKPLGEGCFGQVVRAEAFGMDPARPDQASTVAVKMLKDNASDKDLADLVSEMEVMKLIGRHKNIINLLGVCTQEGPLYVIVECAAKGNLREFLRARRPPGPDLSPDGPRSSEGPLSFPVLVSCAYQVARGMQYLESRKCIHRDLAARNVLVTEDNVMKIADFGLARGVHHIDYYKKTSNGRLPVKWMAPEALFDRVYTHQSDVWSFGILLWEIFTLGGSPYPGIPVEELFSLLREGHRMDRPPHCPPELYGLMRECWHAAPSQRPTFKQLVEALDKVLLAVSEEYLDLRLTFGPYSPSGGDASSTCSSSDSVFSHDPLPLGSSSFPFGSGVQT
Sequence of FGFR2 (P21802 22-821): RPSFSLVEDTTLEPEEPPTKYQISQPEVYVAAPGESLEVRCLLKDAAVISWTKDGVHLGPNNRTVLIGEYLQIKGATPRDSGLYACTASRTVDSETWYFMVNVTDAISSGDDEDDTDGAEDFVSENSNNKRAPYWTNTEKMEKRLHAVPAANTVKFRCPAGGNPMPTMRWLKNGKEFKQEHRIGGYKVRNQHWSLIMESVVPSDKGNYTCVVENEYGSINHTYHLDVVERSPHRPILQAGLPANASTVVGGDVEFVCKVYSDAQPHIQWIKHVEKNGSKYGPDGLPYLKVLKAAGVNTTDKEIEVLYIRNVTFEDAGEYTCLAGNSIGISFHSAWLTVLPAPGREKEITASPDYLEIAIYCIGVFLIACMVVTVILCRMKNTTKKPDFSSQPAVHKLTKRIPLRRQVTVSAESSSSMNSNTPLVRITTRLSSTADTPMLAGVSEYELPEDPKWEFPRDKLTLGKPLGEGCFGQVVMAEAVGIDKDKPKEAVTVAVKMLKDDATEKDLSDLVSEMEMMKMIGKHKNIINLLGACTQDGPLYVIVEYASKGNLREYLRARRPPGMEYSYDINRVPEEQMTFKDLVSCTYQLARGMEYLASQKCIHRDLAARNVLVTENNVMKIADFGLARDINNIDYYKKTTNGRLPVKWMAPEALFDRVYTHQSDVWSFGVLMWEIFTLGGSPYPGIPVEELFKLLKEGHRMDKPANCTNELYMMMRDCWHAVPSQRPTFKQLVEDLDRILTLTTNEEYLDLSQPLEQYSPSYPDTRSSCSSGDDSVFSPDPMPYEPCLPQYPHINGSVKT
Sequence of FGFR3 (P22607 23-806): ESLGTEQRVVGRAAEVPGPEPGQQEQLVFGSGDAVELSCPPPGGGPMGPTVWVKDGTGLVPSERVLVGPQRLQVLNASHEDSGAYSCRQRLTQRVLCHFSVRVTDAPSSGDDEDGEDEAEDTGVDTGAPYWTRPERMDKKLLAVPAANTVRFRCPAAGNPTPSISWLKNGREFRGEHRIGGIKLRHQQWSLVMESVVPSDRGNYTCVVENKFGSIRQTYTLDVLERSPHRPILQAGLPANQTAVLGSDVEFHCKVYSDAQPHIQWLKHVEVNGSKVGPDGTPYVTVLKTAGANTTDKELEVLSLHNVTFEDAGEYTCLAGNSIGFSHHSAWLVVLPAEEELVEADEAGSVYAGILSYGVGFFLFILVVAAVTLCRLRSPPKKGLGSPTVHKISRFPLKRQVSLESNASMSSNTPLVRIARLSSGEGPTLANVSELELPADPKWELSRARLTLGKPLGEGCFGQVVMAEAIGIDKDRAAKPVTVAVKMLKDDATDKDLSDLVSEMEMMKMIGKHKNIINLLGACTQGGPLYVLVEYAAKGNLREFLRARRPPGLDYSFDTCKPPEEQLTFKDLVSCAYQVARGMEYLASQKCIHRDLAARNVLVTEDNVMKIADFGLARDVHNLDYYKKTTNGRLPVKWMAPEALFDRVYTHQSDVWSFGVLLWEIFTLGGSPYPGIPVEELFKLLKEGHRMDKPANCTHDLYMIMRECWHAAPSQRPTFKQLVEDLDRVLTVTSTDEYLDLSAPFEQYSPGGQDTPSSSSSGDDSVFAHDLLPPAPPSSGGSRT

| FGFR1/FGFR4 IC50 ratio (FGFR4; pre-incubated for 4 hours) | FGFR2/FGFR4 IC50 ratio (FGFR4; pre-incubated for 4 hours) | FGFR3/FGFR4 IC50 ratio (FGFR4; pre-incubated for 4 hours) | IC50 (FGFR4; [1]) | IC50 (FGFR2; [2]) | IC50 (FGFR1; pre-incubated for 4 hours) | IC50 (FGFR3; [3]) | FGFR1/FGFR4 IC50 ratio (FGFR4; [4]) | FGFR2/FGFR4 IC50 ratio (FGFR4; [4]) | FGFR3/FGFR4 IC50 ratio (FGFR4; [4]) | IC50 (FGFR4; [5]) | IC50 (FGFR2; [6]) | IC50 (FGFR1; [4]) | IC50 (FGFR3; [7]) | IC50 (FGFR3; [8]) | IC50 (FGFR3; [9]) | IC50 (FGFR2) | Compound | IC50 (FGFR4) |
| --- | --- | --- | --- | --- | --- | --- | --- | --- | --- | --- | --- | --- | --- | --- | --- | --- | --- | --- |
| >100 | >100 | >100 | < 0.01 µM | > 0.2 µM | > 0.2 µM | > 200 nM | – | – | – | – | – | – | – | – | – | – | C=CC(=O)Nc1cn(CC2CCOCC2)nc1-c1cc2c(cn1)CN(c1c(F)c(OC)cc(OC)c1F)C(=O)C21CC1 [Example 35, N-(3-(2′-(2,6-difluoro-3,5-dimethoxyphenyl)-3′-oxo-2′,3′-dihydro-1′H-spiro[cyclopropane-1,4′-[2,7]naphthyridine]-6′-yl)-1-((tetrahydro-2H-pyran-4-yl)methyl)-1H-pyrazol-4-yl)acrylamide] | – |
| >100 | >100 | >100 | < 0.01 µM | > 0.2 µM | > 0.2 µM | > 200 nM | >100 | >100 | >100 | < 0.01 µM | > 0.2 µM | > 0.2 µM | > 200 nM | – | – | – | C=CC(=O)Nc1ccc(C#N)c(-c2cc3c(cn2)CN(c2c(F)c(OC)cc(OC)c2F)C(=O)C32CC2)c1 [Example 5, N-(4-cyano-3-(2′-(2,6-difluoro-3,5-dimethoxyphenyl)-3′-oxo-2′,3′-dihydro-1′H-spiro[cyclopropane-1,4′-[2,7]naphthyridine]-6′-yl)phenyl)acrylamide] | – |
| >100 | >100 | >100 | < 0.01 µM | > 0.2 µM | > 0.2 µM | > 200 nM | >100 | >100 | >100 | < 0.01 µM | > 0.2 µM | > 0.2 µM | > 200 nM | – | – | – | C=CC(=O)Nc1cnc(C)c(-c2cc3c(cn2)CN(c2c(F)c(OC)cc(OC)c2F)C(=O)C32CC2)c1 [Example 7, N-(5-(2′-(2,6-difluoro-3,5-dimethoxyphenyl)-3′-oxo-2′,3′-dihydro-1′H-spiro[cyclopropane-1,4′-[2,7]naphthyridine]-6′-yl)-6-methylpyridin-3-yl)acrylamide] | – |
| >100 | >100 | >100 | < 0.01 µM | > 0.2 µM | > 0.2 µM | > 200 nM | – | – | – | – | – | – | – | – | – | – | C=CC(=O)Nc1cn(CC(=O)N(C)C)nc1-c1cc2c(cn1)CN(c1c(F)c(OC)cc(OC)c1F)C(=O)C21CC1 [Example 36, N-(3-(2′-(2,6-difluoro-3,5-dimethoxyphenyl)-3′-oxo-2′,3′-dihydro-1′H-spiro[cyclopropane-1,4′-[2,7]naphthyridine]-6′-yl)-1-(2-(dimethylamino)-2-oxoethyl)-1H-pyrazol-4-yl)acrylamide] | – |
| – | – | – | – | – | – | – | – | – | – | – | – | – | – | 10 to 30 nM | 10 to 30 nM | – | C=CC(=O)Nc1cc(-c2cc3c(cn2)CN(c2c(F)c(OC)cc(OC)c2F)C(=O)C32CC2)ccn1 [Example 4, N-(4-(2′-(2,6-difluoro-3,5-dimethoxyphenyl)-3′-oxo-2′,3′-dihydro-1′H-spiro[cyclopropane-1,4′-[2,7]naphthyridine]-6′-yl)pyridin-2-yl)acrylamide] | – |
| >100 | >25 | >10 | < 0.01 µM | – | > 0.2 µM | – | >10 | >1 | >1 | < 0.01 µM | 0.03 to 0.2 µM | > 0.2 µM | – | 30 to 200 nM | 10 to 30 nM | 0.03 to 0.2 µM | C=CC(=O)Nc1cc(-c2cc3c(cn2)CN(c2c(F)c(OC)cc(OC)c2F)C(=O)C32CC2)ccc1CN1CCOCC1 [Example 12, N-(5-(2′-(2,6-difluoro-3,5-dimethoxyphenyl)-3′-oxo-2′,3′-dihydro-1′H-spiro[cyclopropane-1,4′-[2,7]naphthyridine]-6′-yl)-2-(morpholinomethyl)phenyl)acrylamide] | – |
| >100 | >100 | >100 | < 0.01 µM | > 0.2 µM | > 0.2 µM | > 200 nM | – | – | – | – | – | – | – | – | – | – | C=CC(=O)Nc1cn(CCOC)nc1-c1cc2c(cn1)CN(c1c(F)c(OC)cc(OC)c1F)C(=O)C21CC1 [Example 32, N-(3-(2′-(2,6-difluoro-3,5-dimethoxyphenyl)-3′-oxo-2′,3′-dihydro-1′H-spiro[cyclopropane-1,4′-[2,7]naphthyridine]-6′-yl)-1-(2-methoxyethyl)-1H-pyrazol-4-yl)acrylamide] | – |
| >100 | >100 | >100 | < 0.01 µM | > 0.2 µM | > 0.2 µM | > 200 nM | >100 | >100 | >100 | < 0.01 µM | > 0.2 µM | > 0.2 µM | > 200 nM | – | – | – | C=CC(=O)Nc1cc(-c2cc3c(cn2)CN(c2c(F)c(OC)cc(OC)c2F)C(=O)C32CC2)c(C)cc1F [Example 6, N-(5-(2′-(2,6-difluoro-3,5-dimethoxyphenyl)-3′-oxo-2′,3′-dihydro-1′H-spiro[cyclopropane-1,4′-[2,7]naphthyridine]-6′-yl)-2-fluoro-4-methylphenyl)acrylamide] | – |
| >100 | >50 | >100 | < 0.01 µM | > 0.2 µM | > 0.2 µM | > 200 nM | – | – | – | – | – | – | – | – | – | – | C=CC(=O)Nc1cnn(Cc2ccncc2)c1-c1cc2c(cn1)CN(c1c(F)c(OC)cc(OC)c1F)C(=O)C21CC1 [Example 21, N-(5-(2′-(2,6-difluoro-3,5-dimethoxyphenyl)-3′-oxo-2′,3′-dihydro-1′H-spiro[cyclopropane-1,4′-[2,7]naphthyridine]-6′-yl)-1-(pyridin-4-ylmethyl)-1H-pyrazol-4-yl)acrylamide] | – |
| – | – | – | < 0.01 µM | – | – | – | – | – | – | < 0.01 µM | 0.03 to 0.2 µM | – | – | 30 to 200 nM | 30 to 200 nM | 0.03 to 0.2 µM | C=CC(=O)Nc1cc(-c2cc3c(cn2)CN(c2c(F)c(OC)cc(OC)c2F)C(=O)C32CC2)ccc1CO [Example 13, N-(5-(2′-(2,6-difluoro-3,5-dimethoxyphenyl)-3′-oxo-2′,3′-dihydro-1′H-spiro[cyclopropane-1,4′-[2,7]naphthyridine]-6′-yl)-2-(hydroxymethyl)phenyl)acrylamide] | – |
| – | – | – | < 0.01 µM | – | – | – | – | – | – | < 0.01 µM | – | – | – | 10 to 30 nM | 10 to 30 nM | – | C=CC(=O)Nc1cccc(-c2cc3c(cn2)CN(c2c(F)c(OC)cc(OC)c2F)C(=O)C32CC2)c1 [Example 1, N-{3-[2′-(2,6-difluoro-3,5-dimethoxyphenyl)-3′-oxo-2′,3′-dihydro-1′H-spiro[cyclopropane-1,4′-[2,7]naphthyridin]-6′-yl]phenyl}acrylamide] | – |
| – | – | – | < 0.01 µM | – | – | – | – | – | – | < 0.01 µM | 0.03 to 0.2 µM | – | – | 30 to 200 nM | 30 to 200 nM | 0.03 to 0.2 µM | C=CC(=O)Nc1cncc(-c2cc3c(cn2)CN(c2c(F)c(OC)cc(OC)c2F)C(=O)C32CC2)c1 [Example 3, N-(5-(2′-(2,6-difluoro-3,5-dimethoxyphenyl)-3′-oxo-2′,3′-dihydro-1′H-spiro[cyclopropane-1,4′-[2,7]naphthyridine]-6′-yl)pyridin-3-yl)acrylamide] | – |
| – | – | – | < 0.01 µM | – | – | – | – | – | – | < 0.01 µM | 0.03 to 0.2 µM | – | – | 10 to 30 nM | 10 to 30 nM | 0.03 to 0.2 µM | C=CC(=O)N(C)c1cccc(-c2cc3c(cn2)CN(c2c(F)c(OC)cc(OC)c2F)C(=O)C32CC2)c1 [Example 9, N-(3-(2′-(2,6-difluoro-3,5-dimethoxyphenyl)-3′-oxo-2′,3′-dihydro-1′H-spiro[cyclopropane-1,4′-[2,7]naphthyridine]-6′-yl)phenyl)-N-methylacrylamide] | – |

| Compound | FGFR1/FGFR4 IC50 ratio (FGFR4; pre-incubated for 4 hours) | FGFR2/FGFR4 IC50 ratio (FGFR4; pre-incubated for 4 hours) | FGFR3/FGFR4 IC50 ratio (FGFR4; pre-incubated for 4 hours) | IC50 (FGFR4; [1]) | IC50 (FGFR2; [2]) | IC50 (FGFR1; pre-incubated for 4 hours) | IC50 (FGFR3; [3]) | FGFR1/FGFR4 IC50 ratio (FGFR4; [4]) | FGFR2/FGFR4 IC50 ratio (FGFR4; [4]) | FGFR3/FGFR4 IC50 ratio (FGFR4; [4]) | IC50 (FGFR4; [5]) | IC50 (FGFR2; [6]) | IC50 (FGFR1; [4]) | IC50 (FGFR3; [7]) | IC50 (FGFR3; [8]) | IC50 (FGFR3; [9]) | IC50 (FGFR2) | IC50 (FGFR4) |
| --- | --- | --- | --- | --- | --- | --- | --- | --- | --- | --- | --- | --- | --- | --- | --- | --- | --- | --- |
| C=CC(=O)Nc1cnn(C[C@@H]2CCOC2)c1-c1cc2c(cn1)CN(c1c(F)c(OC)cc(OC)c1F)C(=O)C21CC1 [Example 28, (S)-N-(5-(2′-(2,6-difluoro-3,5-dimethoxyphenyl)-3′-oxo-2′,3′-dihydro-1′H-spiro[cyclopropane-1,4′-[2,7]naphthyridine]-6′-yl)-1-((tetrahydrofuran-3-yl)methyl)-1H-pyrazol-4-yl)acrylamide] | >100 | >100 | >100 | – | > 0.2 µM | > 0.2 µM | > 200 nM | – | – | – | – | – | – | – | – | – | – | 0.01 to 0.03 µM |
| C=CC(=O)Nc1cnn(CC(=O)NC)c1-c1cc2c(cn1)CN(c1c(F)c(OC)cc(OC)c1F)C(=O)C21CC1 [Example 20, N-(5-(2′-(2,6-difluoro-3,5-dimethoxyphenyl)-3′-oxo-2′,3′-dihydro-1′H-spiro[cyclopropane-l,4′[2,7]naphthyridine]-6′-yl)-1-(2-(methylamino)-2-oxoethyl)-1H-pyrazol-4-yl)acrylamide] | >50 | >100 | >100 | – | – | – | – | – | – | – | – | – | – | – | – | – | – | – |
